Active and inactive are the calls of the source. No cut-off for these calls is given here.
What was measured:
Hepatocyte [1] = assay: Inhibition of gluconeogenesis in Sprague-Dawley rat hepatocytes at 10 uM incubated for 1.5 hrs followed by sodium pyruvate and sodium lactate addition and measured after 4 hrs by colorimetric analysis relative to control; type: functional; settings: time 5.5 hrs
Hepatocyte [2] = assay: Inhibition of gluconeogenesis in Sprague-Dawley rat hepatocytes at 3 uM incubated for 1.5 hrs followed by sodium pyruvate and sodium lactate addition and measured after 4 hrs by colorimetric analysis relative to control; type: functional; settings: time 5.5 hrs
Hepatocyte [3] = assay: Inhibition of gluconeogenesis in Sprague-Dawley rat hepatocytes at 1 uM incubated for 1.5 hrs followed by sodium pyruvate and sodium lactate addition and measured after 4 hrs by colorimetric analysis relative to control; type: functional; settings: time 5.5 hrs
Hepatocyte [4] = assay: Inhibition of gluconeogenesis in Sprague-Dawley rat hepatocytes at 0.3 uM incubated for 1.5 hrs followed by sodium pyruvate and sodium lactate addition and measured after 4 hrs by colorimetric analysis relative to control; type: functional; settings: time 5.5 hrs
Mus musculus [5] = assay: Inhibition of gluconeogenesis in CD-1 mouse assessed as decrease in blood glucose level at 50 mg/kg administered via gavage at 2 hrs prior to pyruvate sodium challenge and measured for 2 hrs by pyruvate tolerance test; type: functional, organism-based; settings: time 4.0 hrs
Mus musculus [6] = assay: Inhibition of gluconeogenesis in CD-1 mouse assessed as decrease in blood glucose level at 50 mg/kg administered via gavage at 1 hr prior to pyruvate sodium challenge and measured for 2 hrs by pyruvate tolerance test; type: functional, organism-based; settings: time 3.0 hrs

## CCCOc1cc(CCC)ccc1OCc1ccc(C(=O)O)o1
Hepatocyte [1]
  fold change (FC): 0.72

## CCCc1ccc(OCc2ccc(C(=O)O)o2)c(OC)c1
Hepatocyte [2]
  fold change (FC): 0.75
Hepatocyte [3]
  fold change (FC): 1.05
Hepatocyte [4]
  fold change (FC): 1.19
Hepatocyte [1]
  fold change (FC): 0.65
Mus musculus [5]
  inhibition: Active

## C=CCc1ccc(OCc2ccc(C(=O)Nc3cccc(C)c3)o2)c(OC)c1
Hepatocyte [1]
  fold change (FC): 0.83

## CNC(=O)Cc1ccc(OCc2ccc(C(=O)O)o2)c(OC)c1
Hepatocyte [1]
  fold change (FC): 1.08

## C=CCc1ccc(OCc2ccc(C(=O)NCc3ccccc3)o2)c(OC)c1
Hepatocyte [1]
  fold change (FC): 0.97

## CCCc1ccc(OCc2ccc(C(=O)O)o2)c(OCCOC)c1
Hepatocyte [1]
  fold change (FC): 0.72

## CCCc1ccc(OCc2ccc(C(=O)O)o2)c(OCC)c1
Hepatocyte [1]
  fold change (FC): 0.77

## C=CCc1ccc(OC)c(OCc2ccc(C(=O)O)o2)c1
Hepatocyte [1]
  fold change (FC): 1

## CCCc1ccc(OCc2ccc(C(=O)O)o2)c(NC(C)=O)c1
Hepatocyte [1]
  fold change (FC): 0.95

## C=CCc1cccc(OC)c1OCc1ccc(C(=O)O)o1
Hepatocyte [1]
  fold change (FC): 0.78

## CCCc1ccc(OCc2ccc(C(=O)O)o2)c(NC)c1
Hepatocyte [2]
  fold change (FC): 0.56
Hepatocyte [3]
  fold change (FC): 0.81
Mus musculus [6]
  inhibition: Active
Hepatocyte [4]
  fold change (FC): 1.02
Hepatocyte [1]
  fold change (FC): 0.41

## CCC(=O)c1ccc(OCc2ccc(C(=O)O)o2)c(OC)c1
Hepatocyte [1]
  fold change (FC): 0.79

## CNC(=O)/C=C/c1ccc(OCc2ccc(C(=O)O)o2)c(OC)c1
Hepatocyte [1]
  fold change (FC): 0.85

## C=CCc1ccc(OCc2ncc(C(=O)O)s2)c(OC)c1
Hepatocyte [1]
  fold change (FC): 1.33

## COc1cc(CCC(=O)N(C)C)ccc1OCc1ccc(C(=O)O)o1
Hepatocyte [1]
  fold change (FC): 0.9

## COc1cc(Cl)ccc1OCc1ccc(C(=O)O)o1
Hepatocyte [2]
  fold change (FC): 0.51
Hepatocyte [3]
  fold change (FC): 0.78
Mus musculus [6]
  inhibition: Active
Hepatocyte [4]
  fold change (FC): 1.02
Hepatocyte [1]
  fold change (FC): 0.33

## C=CCc1ccc(OCc2ccc(C(=O)O)o2)cc1
Hepatocyte [1]
  fold change (FC): 0.6

## C=CCc1ccc(OCc2cccc(C(=O)O)c2)c(OC)c1
Hepatocyte [1]
  fold change (FC): 1.06

Reference: ChEMBL document CHEMBL5344411, “Phenotypic screening-based drug discovery of furan-2-carboxylic acid derivatives for the amelioration of type 2 diabetes mellitus (T2DM)” (Eur J Med Chem, 2023)
